{"source": "paper PMC10046377", "about": "“Inhibitors of the Oncogenic PA2G4-MYCN Protein-Protein Interface” (Cancers, 2023)", "key": {"[1]": {"test_system": "normal human myofibroblasts", "assay": "Toxicity for normal human myofibroblasts relative to WS6", "assay_type": "cell-based", "procedure": "(§1) Cell viability was determined by the Alamar Blue assay (75 mg resazurin, 12.5 mg methylene blue, 164.5 mg potassium hexacyanoferrate (III), 211 mg potassium hexacyanoferrate (II) trihydrate in 500 mL of phosphate buffered saline). After 6 h incubation with Alamar Blue, the change of fluorescence was measured by Victor 3 multilabel Plate Reader (Perkin Elmer Australia, Melburne, Australia) at an excitation wavelength of 560 nm and an emission wavelength of 590 nm.\n(§2) We have shown that the PA2G4 protein increased the half-life of the oncoprotein MYCN through direct binding, and competitive chemical inhibition of this bond by WS6 reduced tumorigenicity both in vitro and in vivo [11]. […] Here, we explored the structure–activity relationship (SAR) of WS6 analogue compounds with the aim to increase efficacy and reduce toxicity. […] The in vitro cytotoxicity of these 14 compounds were measured by cell viability assays using Alamar Blue in MYCN amplified human neuroblastoma (SK-N-BE(2)-C and Kelly) cell lines compared to non-malignant (WI-38, MRC-5) myofibroblast cell lines (Figure 1B,C and Supplementary Figure S1A)."}, "SHEP MYCN3 cells": {"test_system": "SHEP MYCN3 cells", "assay": "Alamar Blue viability, SHEP MYCN3 cells with Dox-inducible MYCN induction", "assay_type": "cell-based, human", "conditions": "Dox-induced MYCN expression, 72 h treatment, compared with DMSO treated controls and WS6", "description": "The MYCN amplified neuroblastoma cell line SK-N-BE(2)-C was kindly provided by Professor June Biedler (Memorial Sloan Kettering Cancer Centre, New York, NY, USA), and Kelly was obtained from European Collection of Cell Cultures. The two normal lung fibroblast cell lines (MRC-5 and WI-38) were purchased from ATCC. SK-N-BE(2)-C shMYCN#2 doxycycline-inducible cell and Kelly shMYCN#2 doxycycline-inducible cell were custom-made by GenScript (Piscataway, NJ, USA). SK-N-BE(2)-C, SK-N-BE(2)-C shMYCN#2, and SHEP MYCN3 doxycycline-inducible cells were maintained in Dulbecco’s modified Eagle’s medium (DMEM) (Invitrogen, Life Technologies, Waltham, MA, USA) with 10% foetal calf serum (FCS). […]\nas §1\nNext, we examined whether #5333 and #5338 treatment for 48 h affected the levels of WS6 target proteins, PA2G4, and MYCN in neuroblastoma cells. […] Cell viability was measured following #5333 and #5338 treatments for 48–72 h. […]"}, "[2]": {"test_system": "neuroblastoma cells (Kelly, SK-N-BE(2)-C) compared to non-malignant myofibroblasts (WI-38, MRC-5)", "assay": "Therapeutic window, neuroblastoma cells versus non-malignant myofibroblasts", "assay_type": "cell-based, human", "conditions": "non-malignant myofibroblast IC50 versus neuroblastoma cell IC50", "procedure": "as §1, §2"}, "MRC-5 cells": {"test_system": "MRC-5 cells", "assay": "Alamar Blue cell viability assay, MRC-5 non-malignant myofibroblasts", "assay_type": "cell-based", "conditions": "Homo sapiens, MRC5", "description": "(§3) The MYCN amplified neuroblastoma cell line SK-N-BE(2)-C was kindly provided by Professor June Biedler (Memorial Sloan Kettering Cancer Centre, New York, NY, USA), and Kelly was obtained from European Collection of Cell Cultures. The two normal lung fibroblast cell lines (MRC-5 and WI-38) were purchased from ATCC. SK-N-BE(2)-C shMYCN#2 doxycycline-inducible cell and Kelly shMYCN#2 doxycycline-inducible cell were custom-made by GenScript (Piscataway, NJ, USA). SK-N-BE(2)-C, SK-N-BE(2)-C shMYCN#2, and SHEP MYCN3 doxycycline-inducible cells were maintained in Dulbecco’s modified Eagle’s medium (DMEM) (Invitrogen, Life Technologies, Waltham, MA, USA) with 10% foetal calf serum (FCS). Kelly and Kelly shMYCN#2 doxycycline-inducible cell were cultured in Roswell Park Memorial Institute (RPMI) 1640 (Invitrogen, Life Technologies) with 10% FCS. MRC-5 and WI-38 were cultured in Alpha-MEM media (Invitrogen, Life Technologies) with 10% FCS. All cells were not cultured for more than 2 months. All used cell lines were authenticated by Cell Bank Australia (Westmead, NSW, Australia) as being free from mycoplasma, and cultured at 37 °C and 5% CO2 in a humidifier incubator.\nas §1, §2"}, "[3]": {"test_system": "cleaved PARP and cleaved Caspase 3", "assay": "Western blot of apoptotic markers", "assay_type": "cell-based, human", "conditions": "compared to WS6 treatment at IC50 concentration; no changes in Bcl-2 or Bax", "procedure": "Protein was extracted from cell pellets using RIPA buffer (Sigma) with 10% protease inhibitor (Sigma, Sydney, Australia). Quantification of proteins was conducted using Pierce BCA protein assay kit (Thermo Scientific), according to manufacturer’s instructions. A total of 30–50 μg protein samples were loaded onto Criterion TGX 10% precast gel (Bio-Rad) or NuPAGE™ 4–12% Mini Protein Gel (Invitrogen, Life technologies) and transferred to a nitrocellulose membrane (Bio-Rad). […] Quantification of protein expression was measured by Image Lab software (Bio-Rad) and normalised to loading control.\nTo determine if the drug effects led to apoptosis, we stained cells with annexin-V/7-AAD, a marker of early and late apoptotic events (Figure 2D). […] To confirm the apoptotic status of the cells, protein expression of key apoptotic markers PARP/Cleaved PARP, Caspase 3/Cleaved caspase 3, BCL2, and Bax was measured (Figure 2E)."}, "PA2G4": {"test_system": "PA2G4", "assay": "Western blot of PA2G4 protein level", "assay_type": "cell-based, human", "conditions": "Kelly and SK-N-BE(2)-C cells; #5333/#5338: 48 h, seen more consistently at 30 μM, with the exception of #5333 in SK-N-BE(2)-C", "procedure": "Protein was extracted from cell pellets using RIPA buffer (Sigma) with 10% protease inhibitor (Sigma, Sydney, Australia). Quantification of proteins was conducted using Pierce BCA protein assay kit (Thermo Scientific), according to manufacturer’s instructions. A total of 30–50 μg protein samples were loaded onto Criterion TGX 10% precast gel (Bio-Rad) or NuPAGE™ 4–12% Mini Protein Gel (Invitrogen, Life technologies) and transferred to a nitrocellulose membrane (Bio-Rad). The membrane was blocked in 5% skim milk in Tris-buffered saline with Tween-20 (20 mM Tris-HCl (pH 7.6), 137 mM NaCl, 0.1% Tween-20) for an hour before incubation at 4 °C overnight with the following primary antibodies: mouse anti-MYCN(1:2000, Santa-Cruz, Cat# sc-53993), rabbit anti-PA2G4 (1:2000, Atlas Antibodies, Cat# HPA016484), rabbit anti-PARP (1:1000, Cell Signalling Technologies, Danvers, MA, USA, Cat# 9542), rabbit anti-Caspase-3 (1:500, Cell Signalling Technologies, Cat# 9662), mouse anti-Bcl-2 (1:1000, Cell Signalling Technologies, Cat# 15071), rabbit anti-Bax (1:1000, Cell Signalling Technologies, Cat# 2772), mouse anti-Vinculin (1:2000, Sigma, Cat# V9131), mouse anti-GAPDH (1:2000, Santa-cruz, Cat# sc-365062), rabbit anti-β-actin (1:5000, Sigma, Cat# SAB2100037), rabbit anti-GATA2 (1:1000, Cell Signalling Technologies, Cat# 4595), mouse anti-Flag/DYKDDDDK tag (1:1000, Cell Signalling Technologies, Cat# 8146). Anti-mouse or anti-rabbit horseradish peroxidase secondary antibodies (1:5000, Life technologies, Cat# 31430, 31460) were added and incubated for 2 h at room temperature. Immunoblots were visualised by Clarity ECL reagent (Bio-Rad) and ChemiDoc MP Imaging System (Bio-Rad). Quantification of protein expression was measured by Image Lab software (Bio-Rad) and normalised to loading control.\nNext, we examined whether #5333 and #5338 treatment for 48 h affected the levels of WS6 target proteins, PA2G4, and MYCN in neuroblastoma cells. […] Cell viability was measured following #5333 and #5338 treatments for 48–72 h. […] Cell viability was measured following #5333, #5338, or WS6 treatments for 72 h."}, "Kelly cells": {"test_system": "Kelly cells", "assay": "Alamar Blue cell viability assay, Kelly", "assay_type": "cell-based", "conditions": "Homo sapiens, MYCN amplified neuroblastoma cell line", "description": "as §3, §1, §2"}}}
{"compound": "Cc1cccc(Oc2cc(N3CCC(C(=O)N[C@@H](C)CCc4ccccc4)CC3)ncn2)c1C", "note": "[#5338]", "values": [{"measurement": "fold lower toxicity for normal human myofibroblasts compared to WS6", "setting": "[1]", "value": 70, "unit": "fold"}, {"measurement": "change of IC50 on MYCN induction, SHEP MYCN3", "setting": "SHEP MYCN3 cells", "value": "significant decrease in IC50"}, {"measurement": "Therapeutic window (fold difference)", "setting": "[2]", "value": 3.8, "unit": "fold"}, {"measurement": "IC50", "setting": "MRC-5 cells", "value": 100, "unit": "µM"}, {"measurement": "expression of cleaved PARP and cleaved Caspase 3", "setting": "[3]", "value": "increased"}, {"measurement": "PA2G4 protein levels (Western blot)", "setting": "PA2G4", "value": "Reductions in PA2G4 levels"}, {"measurement": "IC50", "setting": "Kelly cells", "value": 30, "unit": "µM"}]}
{"compound": "Cc1cccc(Oc2cc(N3CCC(C(=O)NCc4cccc(Br)c4)CC3)ncn2)c1C", "note": "[#5333]", "values": [{"measurement": "fold lower toxicity for normal human myofibroblasts compared to WS6", "setting": "[1]", "value": 70, "unit": "fold"}, {"measurement": "change of IC50 on MYCN induction, SHEP MYCN3", "setting": "SHEP MYCN3 cells", "value": "significant decrease in IC50"}, {"measurement": "Therapeutic window (fold difference)", "setting": "[2]", "value": 3.6, "unit": "fold"}, {"measurement": "IC50", "setting": "MRC-5 cells", "value": 100, "unit": "µM"}, {"measurement": "expression of cleaved PARP and cleaved Caspase 3", "setting": "[3]", "value": "increased"}, {"measurement": "PA2G4 protein levels (Western blot)", "setting": "PA2G4", "value": "Reductions in PA2G4 levels"}, {"measurement": "IC50", "setting": "Kelly cells", "value": 28.6, "unit": "µM"}]}
{"compound": "Cc1cccc(Oc2cc(N3CCC(C(=O)NCc4cccc(C(F)(F)F)c4)CC3)ncn2)c1C", "note": "[#3567]", "values": [{"measurement": "Therapeutic window (fold difference)", "setting": "[2]", "value": 2.7, "unit": "fold"}, {"measurement": "IC50", "setting": "MRC-5 cells", "value": 80, "unit": "µM"}, {"measurement": "PA2G4 protein levels (Western blot)", "setting": "PA2G4", "value": "significantly reduced"}, {"measurement": "IC50", "setting": "Kelly cells", "value": 29, "unit": "µM"}]}
